Assay results from patent US20250154169A1, “COMPOUNDS AND METHODS FOR MODULATING SPLICING” (REMIX THERAPEUTICS INC., priority 2021, published 2025).
Like-named read-outs stand apart in the source and are kept apart here.

Columns and labels:
Type in all cases: cell-based, human
Target C mRNA = experiment: Splicing RT-qPCR gene panel, Target C canonical junction (CJ) mRNA; details: Homo sapiens, Tables 4A/4B, read-out: Target C (IC50, decrease in CJ mRNA, gene panel)
Procedure, shortened: (§1)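 Cells (A673 in DMEM/10% FBS, K562 in IMDM/10% FBS) got compound for 24 h, top dose 10 uM, 11 points, 3-fold steps, DMSO ≤0.25%. Lysates went to RT-qPCR for the canonical exon-exon junction; ΔΔCt against housekeeper and DMSO gave RQ, then percentage response.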

HTT mRNA [1] = experiment: Splicing RT-qPCR assay, HTT canonical (CJ) and alternative (AJ) junction mRNA; details: Homo sapiens, A673 or K562 cells, 24 hours compound treatment; for IC50: 24 h, read-out: HTT CJ (IC50, decrease in canonical junction mRNA); for AC50: read-out: HTT AJ (AC50, increase in alternative junction mRNA)
Procedure, shortened: (§2)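 Compound-induced exon inclusion is tracked as an increase in AJ transcript alongside the CJ transcript. Cells (A673 normalized to PPIA; K562 to GAPDH or GUSB) are dosed 24 h with a serial dilution topping at 10 uM, ≤0.25% DMSO, then lysed and analysed by RT-qPCR in at least duplicate.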

HTT mRNA [2] = experiment: Splicing RT-qPCR gene panel, HTT canonical junction (CJ) mRNA; details: Homo sapiens, Tables 4A/4B, read-out: HTT (IC50, decrease in CJ mRNA, gene panel)
Procedure, shortened: as §1

MYB mRNA = experiment: Splicing RT-qPCR assay, MYB canonical (CJ) and alternative (AJ) junction mRNA; details: Homo sapiens; for AC50: read-out: MYB AJ (AC50, increase in alternative junction mRNA)
Procedure, shortened: as §2

SMN2 mRNA = experiment: Splicing RT-qPCR gene panel, SMN2 canonical junction (CJ) mRNA; details: Homo sapiens, Tables 4A/4B, read-out: SMN2 (IC50, decrease in CJ mRNA, gene panel)
Procedure, shortened: as §1

[3] = 24 h, A673 or K562 cells, 24 hours compound treatment, RT-qPCR
[4] = 24 h, A673 or K562 cells, 24 hours compound treatment, RT-qPCR, read-out: MYB CJ (IC50, decrease in canonical junction mRNA)
[5] = Tables 4A/4B, canonical junction qPCR panel, read-out: MYB (IC50, decrease in CJ mRNA, gene panel)

Structure (SMILES) | IC50 (Target C mRNA) [µM] | IC50 (HTT mRNA [1]) [µM] | AC50 (HTT mRNA [1]) [µM] | IC50 (HTT mRNA [2]) [µM] | AC50 (MYB mRNA; [3]) [µM] | IC50 (MYB mRNA; [4]) [µM] | IC50 (MYB mRNA; [5]) [µM] | IC50 (SMN2 mRNA) [µM]
Cc1cn2cc(NC(=O)c3ccc(N4CC5(CN(C)C5)C4)c4cc(C)oc34)cc(F)c2n1 [Compound 206] | > 10 | 1 to 10 | 1 to 10 | 1 to 10 | 0.1 to 1 | 0.1 to 1 | 0.1 to 1 | < 0.1
Cc1cn2cc(NC(=O)c3ccc(C4CCN(C)CC4)c4cn(C)nc34)cc(F)c2n1 [Compound 209] | 0.1 to 1 | 0.1 to 1 | 0.1 to 1 | 0.1 to 1 | < 0.1 | < 0.1 | < 0.1 | 1 to 10
CCN1CCC(c2ccc(C(=O)Nc3cc(F)c4nc(C)cn4c3)c3nn(C)cc23)CC1 [Compound 210] | 1 to 10 | 0.1 to 1 | 0.1 to 1 | 0.1 to 1 | < 0.1 | < 0.1 | < 0.1 | < 0.1
Cc1cn2cc(NC(=O)c3ccc(C4CC(C)(C)NC(C)(C)C4)c4cn(C)nc34)cc(F)c2n1 [Compound 212] | > 10 | 1 to 10 | > 10 | 1 to 10 | 1 to 10 | 0.1 to 1 | 0.1 to 1 | 0.1 to 1
Cc1cc2c(N3CCNCC3)ccc(C(=O)Nc3cc(F)c4nc(C)sc4c3)c2o1 [Compound 219] | > 10 | > 10 | > 10 | > 10 | 1 to 10 | 0.1 to 1 | 0.1 to 1 | 0.1 to 1
Cc1cn2cc(NC(=O)c3ccc(N4CCN(C)C(C)C4)c4cn(C)nc34)cc(F)c2n1 (stereo not drawn) [Compound 229] | 1 to 10 | 0.1 to 1 | 0.1 to 1 | 0.1 to 1 | < 0.1 | < 0.1 | < 0.1 | < 0.1
Cn1cc2ccc(NC(=O)c3ccc(N4CCNCC4)c4cn(C)nc34)cc2n1 [Compound 230] | > 10 | > 10 | > 10 | > 10 | > 10 | > 10 | > 10 | > 10
Cn1cc2c(F)cc(NC(=O)c3ccc(N4CCNCC4)c4cn(C)nc34)cc2n1 [Compound 231] | > 10 | > 10 | > 10 | > 10 | > 10 | > 10 | > 10 | > 10
Cc1nc2c(F)cc(NC(=O)c3ccc(N4CCNCC4)c4cn(C)nc34)cc2s1 [Compound 235] | > 10 | 1 to 10 | 1 to 10 | 1 to 10 | 0.1 to 1 | 0.1 to 1 | 0.1 to 1 | < 0.1
CC1=CC2=NC(C)=NC2C=C1NC(=O)c1ccc(N2CCNCC2)c2cn(C)nc12 (stereo not drawn) [Compound 237] | > 10 | 1 to 10 | 1 to 10 | 1 to 10 | < 0.1 | 0.1 to 1 | 0.1 to 1 | < 0.1
Cc1cn2cc(NC(=O)c3ccc(N4CCNCC4)c4cn(C)nc34)cc(C)c2n1 [Compound 238] | > 10 | 1 to 10 | 1 to 10 | 1 to 10 | 0.1 to 1 | 0.1 to 1 | 0.1 to 1 | < 0.1
CCC1CN(c2ccc(C(=O)Nc3cc(F)c4nc(C)cn4c3)c3nn(C)cc23)CCN1 (stereo not drawn) [Compound 239] | 1 to 10 | 0.1 to 1 | 0.1 to 1 | 0.1 to 1 | 0.1 to 1 | < 0.1 | < 0.1 | < 0.1
CC1=NC2C=C(NC(=O)c3ccc(N4CCNC(C)(C)C4)c4cn(C)nc34)C=C(F)C2=N1 (stereo not drawn) [Compound 240] | 1 to 10 | 0.1 to 1 | 0.1 to 1 | 0.1 to 1 | < 0.1 | < 0.1 | < 0.1 | < 0.1
Cc1cn2cc(NC(=O)c3ccc(N4CC5(CNC5)C4)c4cn(C)nc34)cc(F)c2n1 [Compound 242] | 1 to 10 | 0.1 to 1 | 1 to 10 | 0.1 to 1 | 0.1 to 1 | < 0.1 | < 0.1 | < 0.1
Cc1cn2cc(NC(=O)c3ccc(N4CC5(CN(C)C5)C4)c4cn(C)nc34)cc(F)c2n1 [Compound 243] | 1 to 10 | 0.1 to 1 | 0.1 to 1 | 0.1 to 1 | < 0.1 | < 0.1 | < 0.1 | < 0.1
Cc1cn2cc(NC(=O)c3ccc(N(C)C4CC(C)(C)NC(C)(C)C4)c4cn(C)nc34)cc(F)c2n1 [Compound 244] | > 10 | > 10 | > 10 | > 10 | > 10 | > 10 | > 10 | 0.1 to 1
CC1=NC2C=C(NC(=O)c3ccc(N(C)C4CCN(C)CC4)c4cn(C)nc34)C=C(F)C2=N1 (stereo not drawn) [Compound 245] | 0.1 to 1 | 0.1 to 1 | 0.1 to 1 | 0.1 to 1 | 0.1 to 1 | 0.1 to 1 | 0.1 to 1 | < 0.1
Cc1cn2cc(NC(=O)c3ccc(N4CCNCC4)c4cn(C)nc34)ncc2n1 [Compound 246] | > 10 | 1 to 10 | 1 to 10 | 1 to 10 | < 0.1 | < 0.1 | < 0.1 | < 0.1
Cc1cn2nc(NC(=O)c3ccc(N4CCNCC4)c4cn(C)nc34)cc2c(C)n1 [Compound 247] | > 10 | > 10 | > 10 | > 10 | > 10 | > 10 | > 10 | > 10
Cc1cn2cc(NC(=O)c3ccc(N4CCC(NC(C)(C)C)C4)c4cn(C)nc34)cc(F)c2n1 (stereo not drawn) [Compound 249] | > 10 | > 10 | > 10 | > 10 | 0.1 to 1 | 0.1 to 1 | 0.1 to 1 | < 0.1
Cc1cn2nc(NC(=O)c3ccc(N4CCNCC4)c4cn(C)nc34)nc2c(C)n1 [Compound 253] | > 10 | > 10 | > 10 | > 10 | > 10 | > 10 | > 10 | 1 to 10
